# Read-outs that look alike come from different tables or passages of the source.
# Columns and labels:
# [1] = test system: cortisol levels; assay: Pharmacodynamic test in cynomolgus monkeys with ACTH stimulation: cortisol in plasma; type: in vivo, cynomolgus monkeys (Macaca fascicularis)
# From the text: (§1) Adult cynomolgus monkeys (Macaca fascicularis) with suitable body weight and age were selected. 1 male and 1 female cynomolgus monkeys were used for experiment. The adaptation period was 1 week. On the day of the experiment, monkeys were individually housed in stainless steel mesh cages for testing.
# (§2) Oral treatment and ACTH working solution (working solution diluted to the desired concentration in PBS sterile solution by ultrapure water filtration through a 0.22 μm filter using Tetracosactrin (HY-P0060, MCE)) were administered as follows: • T=0, 2 monkeys in each group were orally administered 0.5 mg/kg (compound was suspended in 5% aqueous sodium hydroxymethylcellulose solution as vehicle) in a fixed volume of 2 mL/kg; • T=+1 hour (i.e., 1 hour after administration), 14.5 μg/kg of the aforementioned ACTH working solution was injected intramuscularly.
# (§3) Sampling test: Blood samples (collected in EDTA anticoagulant tubes) were collected before oral administration (Pre-dose) and 0.5 h, 1 h, 2 h, 4 h, 6 h and 12 h after administration for cortisol concentration measurement in plasma. The blood was centrifuged at 10000 rpm for 15 minutes at 4° C., followed by separation of the plasma and uniform storage at −80° C. for further analysis using an Roche biochemical analyzer to detect aldosterone and cortisol in plasma, and a portion of the plasma (0.5 h, 1 h, 2 h, 4 h, 6 h, and 12 h after administration, and an additional blood collection after 24 h) was taken simultaneously to determine the pharmacokinetic parameters by LC/MS.
# (§4) The above experiment was repeated except that: T=0, two monkeys in each group were orally administered at a dose of 0.05 mg/kg (compound was suspended in 5% aqueous sodium hydroxymethylcellulose as vehicle) in a fixed volume of 2 mL/kg.
# [2] = Pharmacokinetic test in cynomolgus monkeys (LC/MS); type: in vivo, cynomolgus monkeys (Macaca fascicularis); conditions: both sexes, cynomolgus monkey, plasma; for AUC(0-t): read-out: AUC0-24 h
# From the text: as §1, §2, §3, §4
# [3] = molecular target: human CYP11B1 (Homo sapiens (Human), UniProt P15538); assay: Inhibitory activity against hCYP11B1 in G-402 CYP11B1 high expression stable transformants (cortisol HTRF); type: cell-based; conditions: G-402 CYP11B1 cells, 0.2 μM 11-deoxycortisol, 16 hours; read-out: hCYP11B1 Abs IC50
# Method: 1. Experimental System: G-402 CYP11B2 or CYP11B1 High Expression Stable Transformants
# The above-mentioned high-expression stable transformants were constructed based on human […] cell line G-402. The artificial lentiviruses were introduced into human CYP11B2 (NM_000498.3) and CYP11B1 (NM_000497.4), respectively.
# Maintenance medium: McCoy's 5A (modified, #16600082, GIBCO)+10% FBS (GIBCO)+1 μg/mL puromycin (A1113803, GIBCO).
# Resuscitation and seeding medium: McCoy's 5A (modified, #16600082, GIBCO)+10% FBS (GIBCO).
# Reaction medium: DMEM/F12 (#11320033, GIBCO)+2.5% activated charcoal filtered FBS (S11695, R & D).
# Seeding: Cells were cultured to a suitable state after resuscitation with maintenance medium, and 96-well flat plates were seeded with seeding medium according to 1×10^4/100 μL/well (unified cell volume).
# Changing solution: The supernatant was aspirated and discarded after seeding overnight (>12 hours) and adherence. 100-150 μL/well serum-free medium was added, and after being aspirated. After aspiration, 50 μL/well reaction medium was added for later use.
# Formulation: Compound was diluted with reaction medium containing 0.4 μM substrate (final experimental concentration is 0.2 μM):
# CYP11B1 substrate: 11-deoxycortisol (11-deoxycortisol, S4775, selleckchem). The final reaction concentration was 0.2 μM.
# Loading: The above compound dilutions were added to the cell plates at 50 μL/well. The background and control wells were set.
# Treating and sampling: The cell plates were incubated in a cell incubator for 16 hours after loading, and then each cell plate was centrifuged at 450 g for 2 min. 75 μL supernatant was transferred to a collection plate and frozen at −80° C. for future use (or direct detection).
# Detection: Homogeneous time-resolved fluorescence kit (Cisbio HTRF kit, Cat.64ALDPEG, Cat.62CRTPEG) was used to determine the concentration of aldosterone or cortisol in the supernatant.
# Analysis: The absolute IC50 (Abs IC50) for each compound was calculated using a four parameter fit.
# [4] = molecular target: CYP2D6 (Homo sapiens (Human), UniProt P10635); assay: In vitro inhibitory activity against common CYP450 enzymes: CYP2D6; type: in vitro ADME; conditions: microsomes, substrate Dextromethorphan
# Method: A working solution of the test compound was prepared in a solvent of dimethyl sulfoxide (DMSO) (starting at a final concentration of 50 μM, 3-fold dilution of 7 concentration points). The corresponding microsomes (CORNING, Cat No.452117) and the corresponding substrate solution were prepared (components were shown in Table 2). The working solution of the test compound and the corresponding microsomes were mixed with the corresponding substrate solution and the HLM working solution. The mixture was preheated in a 37.0° C. water bath for 10 min. NADPH cofactor (BONTAC, Cat No.BT04) was added. The resultant mixture was incubated for 10 min in a 37.0° C. water bath. The reaction was terminated by adding cold stop solution. [table] [table] The sample was centrifuged at 4000 rpm for 20 min to precipitate protein and the supernatant was transferred to HPLC water and shaken for 10 min.
# Sequence of CYP2D6 (P10635 whole entry): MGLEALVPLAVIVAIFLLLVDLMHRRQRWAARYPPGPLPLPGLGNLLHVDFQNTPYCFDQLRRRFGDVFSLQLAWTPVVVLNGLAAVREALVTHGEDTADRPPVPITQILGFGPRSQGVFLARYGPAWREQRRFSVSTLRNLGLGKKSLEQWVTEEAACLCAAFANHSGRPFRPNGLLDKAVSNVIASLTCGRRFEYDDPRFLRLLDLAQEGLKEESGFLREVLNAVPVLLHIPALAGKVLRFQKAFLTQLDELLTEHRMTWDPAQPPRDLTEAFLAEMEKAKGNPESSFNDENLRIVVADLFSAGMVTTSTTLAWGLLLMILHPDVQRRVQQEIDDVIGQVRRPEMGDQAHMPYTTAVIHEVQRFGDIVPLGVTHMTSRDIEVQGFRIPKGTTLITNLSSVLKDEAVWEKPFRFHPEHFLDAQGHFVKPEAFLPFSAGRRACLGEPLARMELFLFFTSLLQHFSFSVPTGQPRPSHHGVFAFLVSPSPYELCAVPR
# Sequence of human CYP11B1 (P15538 25-503): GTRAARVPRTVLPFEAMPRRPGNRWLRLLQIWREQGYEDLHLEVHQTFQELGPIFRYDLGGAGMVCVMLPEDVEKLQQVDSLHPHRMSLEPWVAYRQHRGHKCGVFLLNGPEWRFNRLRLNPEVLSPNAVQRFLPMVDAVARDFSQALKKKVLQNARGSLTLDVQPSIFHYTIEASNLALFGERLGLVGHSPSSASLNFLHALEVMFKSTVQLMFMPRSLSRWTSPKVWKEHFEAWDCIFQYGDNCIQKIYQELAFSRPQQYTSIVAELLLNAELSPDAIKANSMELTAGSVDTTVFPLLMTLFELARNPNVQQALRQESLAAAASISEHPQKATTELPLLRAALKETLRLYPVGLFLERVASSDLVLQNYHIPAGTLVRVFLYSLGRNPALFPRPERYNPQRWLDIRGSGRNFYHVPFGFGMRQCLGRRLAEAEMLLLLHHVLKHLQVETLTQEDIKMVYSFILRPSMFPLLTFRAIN
smiles,measurement,setting,value
"CCC(=O)N[C@@H]1CCCc2c(-c3ccc4c(c3)CCC(=O)N4C)cncc21 [Baxdrostat, reference compound]",Cortisol Concentration in Plasma,"[1]; 0.05 mg/kg oral, 0.5 h",1136.1 pg/mL
same,Cortisol Concentration in Plasma,"[1]; 0.05 mg/kg oral, 1 h (ACTH at +1 hour)",1293.5 pg/mL
same,Cortisol Concentration in Plasma,"[1]; 0.05 mg/kg oral, 2 h",1527.0 pg/mL
same,Cortisol Concentration in Plasma,"[1]; 0.05 mg/kg oral, 4 h",949.2 pg/mL
same,Cortisol Concentration in Plasma,"[1]; 0.05 mg/kg oral, 6 h",499.4 pg/mL
same,Cortisol Concentration in Plasma,"[1]; 0.05 mg/kg oral, 12 h",392.6 pg/mL
same,Cortisol Concentration in Plasma,"[1]; 0.05 mg/kg oral, Pre-dose",784.2 pg/mL
same,Cortisol Concentration in Plasma,"[1]; 0.5 mg/kg oral, 0.5 h",1004.1 pg/mL
same,Cortisol Concentration in Plasma,"[1]; 0.5 mg/kg oral, 1 h (ACTH at +1 hour)",964.8 pg/mL
same,Cortisol Concentration in Plasma,"[1]; 0.5 mg/kg oral, 2 h",1288.5 pg/mL
same,Cortisol Concentration in Plasma,"[1]; 0.5 mg/kg oral, 4 h",556.6 pg/mL
same,Cortisol Concentration in Plasma,"[1]; 0.5 mg/kg oral, 6 h",337.0 pg/mL
same,Cortisol Concentration in Plasma,"[1]; 0.5 mg/kg oral, 12 h",344.6 pg/mL
same,Cortisol Concentration in Plasma,"[1]; 0.5 mg/kg oral, Pre-dose",596.4 pg/mL
same,Cmax,"[2]; 0.05 mg/kg, 0.05mpk oral",6.13 ng/mL
same,Tmax,"[2]; 0.05 mg/kg, 0.05mpk oral",2 h
same,half-life,"[2]; 0.05 mg/kg, 0.05mpk oral",10.9 h
same,AUC(0-t),"[2]; 0.05 mg/kg, 0.05mpk oral",90.3 ng·h/mL
same,Cmax,"[2]; 0.5 mg/kg, 0.5mpk oral",56.1 ng/mL
same,Tmax,"[2]; 0.5 mg/kg, 0.5mpk oral",2 h
same,half-life,"[2]; 0.5 mg/kg, 0.5mpk oral",9.25 h
same,AUC(0-t),"[2]; 0.5 mg/kg, 0.5mpk oral",606 ng·h/mL
same,IC50,[3],3.37 µM
same,IC50,[4],> 50 µM

# From patent US20250361240A1, “PYRANOPYRIDINE COMPOUND, PROCESS FOR PREPARING THE SAME, PHARMACEUTICAL COMPOSITION AND USE THEREOF” (Zhejiang Yangli Pharmaceutical Technology Co., Ltd., priority 2024, published 2025)
